# System: COS-1 cells
# Assay: In vitro mammalian cytotoxicity assay (Resazurin)
row,Structure (SMILES),In Vitro Cytotoxicity
1,CN(C)[C@@H]1C(O)=C(C(N)=O)C(=O)[C@@]2(C#N)C(O)=C3C(=O)c4c(O)ccc(-c5ccccc5Cl)c4C[C@@]3(N)C[C@@]12N [GM],** (toxicities less than 25 μg/mL are represented by **)
2,Cc1csc(-c2ccc(O)c3c2C[C@@]2(N)C[C@@]4(N)[C@H](N(C)C)C(O)=C(C(N)=O)C(=O)[C@@]4(C#N)C(O)=C2C3=O)c1 [GN],** (toxicities less than 25 μg/mL are represented by **)
3,CN(C)[C@@H]1C(O)=C(C(N)=O)C(=O)[C@@]2(C#N)C(O)=C3C(=O)c4c(O)ccc(-c5ccco5)c4C[C@@]3(N)C[C@@]12N [GO],** (toxicities less than 25 μg/mL are represented by **)
4,CC(=O)Oc1cccc(-c2cc(N(C)C)c3c(c2O)C(=O)C2=C(O)[C@]4(C#N)C(=O)C(C(N)=O)=C(O)[C@@H](N(C)C)[C@]4(N)C[C@]2(N)C3)c1 [GP],* (toxicities greater than >25 μg/ml are represented by *)
5,CN(C)[C@@H]1C(O)=C(C(N)=O)C(=O)[C@@]2(C#N)C(O)=C3C(=O)c4c(O)ccc(C#Cc5cccc(C#N)c5)c4C[C@@]3(N)C[C@@]12N [GQ],* (toxicities greater than >25 μg/ml are represented by *)
6,CC(=O)c1ccc(O)c2c1C[C@@]1(N)C[C@@]3(N)[C@H](N(C)C)C(O)=C(C(N)=O)C(=O)[C@@]3(C#N)C(O)=C1C2=O [GR],* (toxicities greater than >25 μg/ml are represented by *)
7,CN(C)[C@@H]1C(O)=C(C(N)=O)C(=O)[C@@]2(C#N)C(O)=C3C(=O)c4c(O)ccc(C#Cc5ccccc5F)c4C[C@@]3(N)C[C@@]12N [GS],** (toxicities less than 25 μg/mL are represented by **)
8,CC(=O)Nc1cccc(-c2ccc(O)c3c2C[C@@]2(N)C[C@@]4(N)[C@H](N(C)C)C(O)=C(C(N)=O)C(=O)[C@@]4(C#N)C(O)=C2C3=O)c1 [GT],* (toxicities greater than >25 μg/ml are represented by *)
9,COc1cccc(C#Cc2ccc(O)c3c2C[C@@]2(N)C[C@@]4(N)[C@H](N(C)C)C(O)=C(C(N)=O)C(=O)[C@@]4(C#N)C(O)=C2C3=O)c1 [GU],** (toxicities less than 25 μg/mL are represented by **)
10,CN(C)[C@@H]1C(O)=C(C(N)=O)C(=O)[C@@]2(C#N)C(O)=C3C(=O)c4c(O)ccc(/C=C/c5ccc(Cl)cc5)c4C[C@@]3(N)C[C@@]12N [GV],* (toxicities greater than >25 μg/ml are represented by *)
11,CCC(C)C#Cc1ccc(O)c2c1C[C@@]1(N)C[C@@]3(N)[C@H](N(C)C)C(O)=C(C(N)=O)C(=O)[C@@]3(C#N)C(O)=C1C2=O (stereo partly drawn) [GW],** (toxicities less than 25 μg/mL are represented by **)
12,CCC(CC)CCc1ccc(O)c2c1C[C@@]1(N)C[C@@]3(N)[C@H](N(C)C)C(O)=C(C(N)=O)C(=O)[C@@]3(C#N)C(O)=C1C2=O [GX],** (toxicities less than 25 μg/mL are represented by **)
13,CN(C)CC(=O)Nc1ccc(C#Cc2ccc(O)c3c2C[C@@]2(N)C[C@@]4(N)[C@H](N(C)C)C(O)=C(C(N)=O)C(=O)[C@@]4(C#N)C(O)=C2C3=O)cc1 [GY],* (toxicities greater than >25 μg/ml are represented by *)
14,CN(C)[C@@H]1C(O)=C(C(N)=O)C(=O)[C@@]2(C#N)C(O)=C3C(=O)c4c(O)ccc(C#CCc5ccccc5)c4C[C@@]3(N)C[C@@]12N [GZ],** (toxicities less than 25 μg/mL are represented by **)
15,Cc1ccc(/C=C/c2ccc(O)c3c2C[C@@]2(N)C[C@@]4(N)[C@H](N(C)C)C(O)=C(C(N)=O)C(=O)[C@@]4(C#N)C(O)=C2C3=O)cc1 [HA],** (toxicities less than 25 μg/mL are represented by **)
16,Cc1cc(C)cc(-c2cc(N(C)C)c3c(c2O)C(=O)C2=C(O)[C@]4(C#N)C(=O)C(C(N)=O)=C(O)[C@@H](N(C)C)[C@]4(N)C[C@]2(N)C3)c1 [HD],** (toxicities less than 25 μg/mL are represented by **)
17,Cc1ncsc1/C=C/c1ccc(O)c2c1C[C@@]1(N)C[C@@]3(N)[C@H](N(C)C)C(O)=C(C(N)=O)C(=O)[C@@]3(C#N)C(O)=C1C2=O [HE],** (toxicities less than 25 μg/mL are represented by **)
18,CN(C)CCCc1ccc(O)c2c1C[C@@]1(N)C[C@@]3(N)[C@H](N(C)C)C(O)=C(C(=O)NC(C)(C)C)C(=O)[C@@]3(C#N)C(O)=C1C2=O [HH],* (toxicities greater than >25 μg/ml are represented by *)
19,COCC#Cc1ccc(O)c2c1C[C@@]1(N)C[C@@]3(N)[C@H](N(C)C)C(O)=C(C(N)=O)C(=O)[C@@]3(C#N)C(O)=C1C2=O [HI],* (toxicities greater than >25 μg/ml are represented by *)
20,CN(C)[C@@H]1C(O)=C(C(N)=O)C(=O)[C@@]2(C#N)C(O)=C3C(=O)c4c(O)ccc(/C=C/c5ccc(C(F)(F)F)cc5)c4C[C@@]3(N)C[C@@]12N [HK],** (toxicities less than 25 μg/mL are represented by **)
21,CN(C)[C@@H]1C(O)=C(C(N)=O)C(=O)[C@@]2(C#N)C(O)=C3C(=O)c4c(O)ccc(-c5cccc(CN6CCCC6)c5)c4C[C@@]3(N)C[C@@]12N [HL],* (toxicities greater than >25 μg/ml are represented by *)

row,Structure (SMILES),In Vitro Cytotoxicity
1,CN(C)[C@@H]1C(O)=C(C(N)=O)C(=O)[C@@]2(C#N)C(O)=C3C(=O)c4c(O)ccc(-c5ccc(CN6CCCC6)cc5)c4C[C@@]3(N)C[C@@]12N [HM],* (toxicities greater than >25 μg/ml are represented by *)
2,CN(C)[C@@H]1C(O)=C(C(N)=O)C(=O)[C@@]2(C#N)C(O)=C3C(=O)c4c(O)ccc(-c5cccc(CNCc6ccccc6)c5)c4C[C@@]3(N)C[C@@]12N [HN],** (toxicities less than 25 μg/mL are represented by **)
3,CN(C)[C@@H]1C(O)=C(C(N)=O)C(=O)[C@@]2(C#N)C(O)=C3C(=O)c4c(O)ccc(C#Cc5ccc(NS(C)(=O)=O)cc5)c4C[C@@]3(N)C[C@@]12N [HO],** (toxicities less than 25 μg/mL are represented by **)
4,CN(C)[C@@H]1C(O)=C(C(N)=O)C(=O)[C@@]2(C#N)C(O)=C3C(=O)c4c(O)ccc(-c5ccc(CNCc6ccccc6)cc5)c4C[C@@]3(N)C[C@@]12N [HP],** (toxicities less than 25 μg/mL are represented by **)
5,CN(C)Cc1cccc(-c2ccc(O)c3c2C[C@@]2(N)C[C@@]4(N)[C@H](N(C)C)C(O)=C(C(N)=O)C(=O)[C@@]4(C#N)C(O)=C2C3=O)c1 [HQ],* (toxicities greater than >25 μg/ml are represented by *)
6,CN(C)Cc1ccc(-c2ccc(O)c3c2C[C@@]2(N)C[C@@]4(N)[C@H](N(C)C)C(O)=C(C(N)=O)C(=O)[C@@]4(C#N)C(O)=C2C3=O)cc1 [HR],* (toxicities greater than >25 μg/ml are represented by *)
7,CN(C)[C@@H]1C(O)=C(C(N)=O)C(=O)[C@@]2(C#N)C(O)=C3C(=O)c4c(O)ccc(-c5cccc(CN6CCOCC6)c5)c4C[C@@]3(N)C[C@@]12N [HS],* (toxicities greater than >25 μg/ml are represented by *)
8,CN(C)[C@@H]1C(O)=C(C(N)=O)C(=O)[C@@]2(C#N)C(O)=C3C(=O)c4c(O)ccc(-c5ccc(CN6CCOCC6)cc5)c4C[C@@]3(N)C[C@@]12N [HT],* (toxicities greater than >25 μg/ml are represented by *)
9,COc1ccc(CN2CCOCC2)cc1-c1ccc(O)c2c1C[C@@]1(N)C[C@@]3(N)[C@H](N(C)C)C(O)=C(C(N)=O)C(=O)[C@@]3(C#N)C(O)=C1C2=O [HU],* (toxicities greater than >25 μg/ml are represented by *)
10,COc1cccc(C/C=C\c2ccc(O)c3c2C[C@@]2(N)C[C@@]4(N)[C@H](N(C)C)C(O)=C(C(N)=O)C(=O)[C@@]4(C#N)C(O)=C2C3=O)c1OC [HV],** (toxicities less than 25 μg/mL are represented by **)
11,COc1cc(C/C=C\c2ccc(O)c3c2C[C@@]2(N)C[C@@]4(N)[C@H](N(C)C)C(O)=C(C(N)=O)C(=O)[C@@]4(C#N)C(O)=C2C3=O)ccc1O [HW],** (toxicities less than 25 μg/mL are represented by **)
12,CN(C)[C@@H]1C(O)=C(C(N)=O)C(=O)[C@@]2(C#N)C(O)=C3C(=O)c4c(cc(Br)c(N)c4O)[C@H](N)[C@@]3(N)[C@H](O)[C@@]12N [HY],* (toxicities greater than >25 μg/ml are represented by *)
13,CN(C)c1cc(C#CC(=O)O)c(O)c2c1C[C@@]1(N)C[C@@]3(N)[C@H](N(C)C)C(O)=C(C(N)=O)C(=O)[C@@]3(C#N)C(O)=C1C2=O [HZ],* (toxicities greater than >25 μg/ml are represented by *)
14,CN(C)c1cc(NC(=O)Nc2cccc3ccccc23)c(O)c2c1C[C@@]1(N)C[C@@]3(N)[C@H](N(C)C)C(O)=C(C(N)=O)C(=O)[C@@]3(C#N)C(O)=C1C2=O [IA],* (toxicities greater than >25 μg/ml are represented by *)
15,CN(C)c1cc(NC(=O)Nc2ccccc2)c(O)c2c1C[C@@]1(N)C[C@@]3(N)[C@H](N(C)C)C(O)=C(C(N)=O)C(=O)[C@@]3(C#N)C(O)=C1C2=O [IB],* (toxicities greater than >25 μg/ml are represented by *)
16,CN(C)c1cc(NC(=O)Nc2ccc([N+](=O)O)cc2)c(O)c2c1C[C@@]1(N)C[C@@]3(N)[C@H](N(C)C)C(O)=C(C(N)=O)C(=O)[C@@]3(C#N)C(O)=C1C2=O [IC],* (toxicities greater than >25 μg/ml are represented by *)
17,CN(C)[C@@H]1C(O)=C(C(N)=O)C(=O)[C@@]2(C#N)C(O)=C3C(=O)c4c(O)c(C(C)(C)C)cc(CCC(=O)c5cccnc5)c4C[C@@]3(N)C[C@@]12N [ID],* (toxicities greater than >25 μg/ml are represented by *)
18,COc1ccc(NC(=O)Nc2cc(N(C)C)c3c(c2O)C(=O)C2=C(O)[C@]4(C#N)C(=O)C(C(N)=O)=C(O)[C@@H](N(C)C)[C@]4(N)C[C@]2(N)C3)cc1 [IE],* (toxicities greater than >25 μg/ml are represented by *)
19,CCCCC#Cc1ccc(O)c2c1C[C@@]1(N)C[C@@]3(N)[C@H](N(C)C)C(O)=C(C(N)=O)C(=O)[C@@]3(C#N)C(O)=C1C2=O [IG],** (toxicities less than 25 μg/mL are represented by **)
20,CCCC/C(Cl)=C/c1ccc(O)c2c1C[C@@]1(N)C[C@@]3(N)[C@H](N(C)C)C(O)=C(C(N)=O)C(=O)[C@@]3(C#N)C(O)=C1C2=O [IH],** (toxicities less than 25 μg/mL are represented by **)
21,CN(C)Cc1ccc(-c2cc(N(C)C)c3c(c2O)C(=O)C2=C(O)[C@]4(C#N)C(=O)C(C(N)=O)=C(O)[C@@H](N(C)C)[C@]4(N)C[C@]2(N)C3)cc1 [IJ],* (toxicities greater than >25 μg/ml are represented by *)
